Series [1] is described as follows: In vivo delivery of lipid-nucleic acid mixture (PGY-sRNA-26) by gavage, relative intake in blood and tissues by RT-qPCR. The arrangement: species or system C57BL/6 male mice. The conditions noted are these: for oral delivery of sRNA single-chain nucleic acid into the blood, and lung, kidney, spleen, heart, and intestinal tissue of mice: 100 μg lipid:1 nmol PGY-sRNA-26 per mouse, 12 hrs after gavage, vs free intake group; for number of organs into which nucleic acid is significantly delivered: among the 6 organs in the experiments. As to the method: The concentration of a lipid solution in chloroform was 10 mg/ml (stock solution), and grouping was performed according to the lipid compound number.
(§1) 1 nmol of small RNA (as shown in Table 2) was dissolved in 400 μl of DEPC-treated water in a glass tube, and 10 μl of a corresponding lipid stock solution was added, to give a system containing 100 μg of lipid. The system was well mixed, heated for 15 min in a water bath at 90° C., and then naturally cooled, to obtain a lipid-nucleic acid mixture of the lipid and small RNA.
(§2) The C57BL/6 male mice used in the experiment were purchased from Beijing Vital River Laboratory Animal Technology Co., Ltd., about 6 weeks old, and weighed 20-24 g. They were kept in an SPF animal room of the Animal Center of the Institute of Basic Medical Sciences, Chinese Academy of Medical Sciences. The mice were fasted for 12 hrs before gavage.
The lipid-nucleic acid mixture was prepared following the method as described in Example 2. The prepared lipid-nucleic acid mixture was orally administered at a dose of 100 μg lipid:1 nmol single-stranded small RNA PGY-sRNA-26 per mouse.
1) Blank group: Mice (n=4) were given 500 μl of normal saline by gavage, and this group served as a blank control group;
2) Free intake group: Mice (n=4) were given sRNA solution (1 nmol/animal, 500 μl) by direct gavage, and this group served as a negative control group;
3) Lipid treatment group: Mice (n=4) were given 500 μl of the lipid-nucleic acid mixture prepared in step 2 by gavage.
12 hrs after gavage in each group of mice, 500 μl of blood was taken from the eyeball, and 1.5 ml of Trizol Reagent LS (purchased from Invitrogen) was added and mixed well for lysis. The tissue sample was added with 3 ml of Trizol Reagent LS. and homogenized for full lysis, wherein the tissue sample included lung/kidney/spleen/heart/gut. 1 ml of blood or tissue lysate was taken and RNA was extracted according to the following steps.
The blood or tissue lysate was centrifuged at 4° C., and 12,000 rpm for 5 min, the pellet was discarded, and Trizol was transferred to a new centrifuge tube.
Chloroform was added in an amount of 200 μL chloroform/mL Trizol, shaken fully until uniform, and allowed to stand at room temperature for 5 min.
The sample was centrifuged at 4° C., and 12,000 rpm, for 15 min.
The upper aqueous phase was pipetted to another centrifuge tube, and isopropanol was added in an amount of 0.4 mL isopropanol/mL Trizol, mixed well, and allowed to stand at a low temperature for 10-20 min.
The sample was centrifuged at 4° C., and 12,000 rpm, for 15 min, the supernatant was discarded, and the RNA pellet was at the bottom of the tube.
1 mL of 75% ethanol was added, and the centrifuge tube was shaken gently, to suspend the pellet.
The sample was centrifuged at 4° C., and 12,000 rpm, for 10 min, the supernatant was discarded, 1 mL of 75% ethanol was added, and the centrifuge tube was shaken gently, to suspend the pellet.
The sample was centrifuged at 4° C., and 12,000 rpm, for 10 min, the supernatant was discarded, and the sample was air dried at room temperature. The RNA sample was dissolved in 50-100 μL of RNase-free H2O, and the RNA concentration was quantified by determining the OD value.
The sRNA was reversely transcribed into cDNA using a reverse transcription kit (High-Capacity cDNA Reverse Transcription Kits, Applied Biosystems, cat. no. 4368813), following the stem-loop method (see, for example Real-time quantification of microRNAs by stem-loop RT-PCR, Nucleic Acids Res. 2005 Nov. 27; 33(20):e179, incorporated herein by reference). System for reverse transcription: template RNA (200 ng/μL) 10 μL, 10×RT buffer 2.0 μL, 25×dNTP Mix (100 mM) 0.8 μL, U6 RT stem-loop primer 2.0 μL, PGY-sRNA-26 RT stem-loop primer 2.0 μL, MultiScribe™ reverse transcriptase 1.0 μL, RNAase inhibitor 1.0 μL, and nuclease-free water H2O 1.2 μL. […]
In general terms: Real-time PCR tracks product formation cycle by cycle.

Series [2] can be described thus: Pharmacokinetic study of lipid-nucleic acid mixture, tail vein injection group, relative amount of PGY-sRNA-26 delivered to organs over time. The conditions noted are these: injection via the tail vein; sampled at 3, 6, 9, 12, 24 hrs. The series is classed as in vivo, C57BL/6 male mice. As to the method: as §1, §2
(§3) The lipid-nucleic acid mixture was prepared following the method as described in Example 2. The prepared lipid-nucleic acid mixture was orally administered or injected via the tail vein at a dose of 100 μg lipid:1 nmol single-stranded small RNA PGY-sRNA-26 per mouse. The oral dose was half that of the tail vein injection.
(§4) 1) Blank group: Mice (n=6) were given 500 μl of normal saline by gavage, and this group served as a blank control group;
3) Intravenous injection group: Mice (n=15) were given 100 μl of the lipid-nucleic acid mixture prepared in step 2 by injection via the tail vein.
(§5) At 3 hrs, 6 hrs, 9 hrs, 12 hrs and 24 hrs after administration in the gavage group and the intravenous injection group, 3 mice were taken and the RNA was extracted from each organ according to the method in Example 3.
(§6) The RNA extracted from each organ was reverse transcribed into cDNA according to the method in Example 3.
(§7) A quantitative PCR amplification reaction was performed according to the method in Example 3.
(§8) 3.5. The Relative Expression Level was Calculated by the 2-ΔCt Method.
(§9) FIGS. 46-49 respectively show the results of delivering single-stranded small RNA PGY-sRNA-26 into different target tissues at various time points by gavage using lipids 93, 94, 96, and 100. FIGS. 50-54 respectively show the results of delivering single-stranded small RNA PGY-sRNA-26 into different target tissues at various time points by injection via the tail vein using lipids 94, 96, 98, 100, and 101.

Series [3] in a line: Pharmacokinetic study of lipid-nucleic acid mixture, gavage group, relative amount of PGY-sRNA-26 delivered to organs over time. To be noted: sampled at 3, 6, 9, 12, 24 hrs. Format: in vivo, C57BL/6 male mice. As to the method: as §1, §2, §3, §4
2) Gavage group: Mice (n=15) were given 200 μl of the lipid-nucleic acid mixture prepared in step 2 by gavage.
as §5, §6, §7, §8, §9

Where [4] appears, read: significant difference compared to the control, 100 μg lipid:1 nmol PGY-sRNA-26, 12 hrs.

Results on 13 compounds are retold here after patent US20230088528A1, “USE OF LIPID IN PREPARATION OF NUCLEIC ACID DELIVERY REAGENT AND RELATED PRODUCT THEREOF” (INSTITUTE OF BASIC MEDICAL SCIENCES CHINESE ACADEMY OF …, priority 2019, published 2023).

Where a name gives a salt, the structure may show the parent alone.

With “1-O-octadecyl-2-hydroxy-sn-glycero-3-phosphocholine [Lipid 94]”, in series [1], the “oral delivery of sRNA single-chain nucleic acid into the blood, and lung, kidney, spleen, heart, and intestinal tissue of mice” value (“oral delivery … and intestinal tissue of mice” below) is “can effectively orally deliver”; the “number of organs into which nucleic acid is significantly delivered” value is “two organs”. In addition, in series [1] (setting [4]), the “oral delivery of sRNA single-stranded nucleic acid into the kidney tissue of mice” value is reported as “can significantly efficiently orally deliver” and the “oral delivery of sRNA single-stranded nucleic acid into the lung tissue of mice” value is given as “can significantly efficiently orally deliver”. In series [2], the “time at which amount of nucleic acid delivered into the brain tissue reaches a maximum value” is 6 h, the “time at which amount of nucleic acid delivered into the gastric tissue reaches a maximum value” was 3 h, the “time at which amount of nucleic acid delivered into the intestinal tissue reaches a maximum value” stood at 6 h and the “time at which amount of nucleic acid delivered into the kidney tissue reaches a maximum value” amounted to 9 h. Further, the “time at which amount of nucleic acid delivered into the spleen tissue reaches a maximum value” in series [2] came out at 6 h. For the same compound, in series [3], the “time at which amount of nucleic acid delivered into the brain tissue reaches a maximum value” was 3 h, the “time at which amount of nucleic acid delivered into the gastric tissue reaches a maximum value” came to 3 h, the “time at which amount of nucleic acid delivered into the heart tissue reaches a maximum value” turned out to be 3 h and the “time at which amount of nucleic acid delivered into the intestinal tissue reaches a maximum value” was 3 h. Also, in series [3], the “time at which amount of nucleic acid delivered into the kidney tissue reaches a maximum value” was 9 h, the “time at which amount of nucleic acid delivered into the lung tissue reaches a maximum value” amounted to 9 h and the “time at which amount of nucleic acid delivered into the spleen tissue reaches a maximum value” came to 3 h.
Take “1-palmitoyl-2-hydroxy-sn-glycero-3-phosphate (sodium salt) [Lipid 96]”: in series [1], the “oral delivery … and intestinal tissue of mice” value is listed as “can effectively orally deliver”; the “number of organs into which nucleic acid is significantly delivered” value is on record as “two organs”. Also, in series [1] (setting [4]), the “oral delivery of sRNA single-stranded nucleic acid into the kidney tissue of mice” value is on record as “can significantly efficiently orally deliver” and the “oral delivery of sRNA single-stranded nucleic acid into the spleen tissue of mice” value is “can significantly efficiently orally deliver”. In series [2], the “time at which amount of nucleic acid delivered into the brain tissue reaches a maximum value” was 6 h, the “time at which amount of nucleic acid delivered into the heart tissue reaches a maximum value” stood at 9 h, the “time at which amount of nucleic acid delivered into the intestinal tissue reaches a maximum value” turned out to be 6 h and the “time at which amount of nucleic acid delivered into the kidney tissue reaches a maximum value” turned out to be 3 h. In series [2], the “time at which amount of nucleic acid delivered into the liver tissue reaches a maximum value” is 3 h and the “time at which amount of nucleic acid delivered into the lung tissue reaches a maximum value” turned out to be 6 h. Further, in series [3], the “time at which amount of nucleic acid delivered into the intestinal tissue reaches a maximum value” was 3 h and the “time at which amount of nucleic acid delivered into the kidney tissue reaches a maximum value” came to 3 h.
As for `CCCCCCCCCCCCCCCC(=O)OC[C@H](COP(=O)(O)O[C@H]1C(O)C(O)C(O)[C@@H](O)C1O)OC(=O)CCCCCCCCCCCCCCC` (stereo partly drawn) [Lipid 109, 1,2-dipalmitoyl-sn-glycero-3-phospho-(l′-myo-inositol) (ammonium salt)], the “oral delivery … and intestinal tissue of mice” value in series [1] is reported as “can effectively orally deliver”.
Consider `CCCCCCCCCCCCCCCCCC(=O)OCC(O)COC(=O)CCCCCCCCCCCCCCC` (stereo not drawn) [Lipid 111, 1-palmitin-3-stearin], for which the “oral delivery … and intestinal tissue of mice” value in series [1] was “can effectively orally deliver”.
The same measure, in the same setting: with `CCCCCCCCCCCCCCCCCCCC(=O)OCC(COC(=O)CCCCCCCCCCCCCCCCCCC)OC(=O)CCCCCCCCCCCCCCCCCCC` [Lipid 112, Trieicosanoin] the entry was “can effectively orally deliver”.
The same measure, in the same setting: to `CCCCCCCCCCCCCCCC(=O)OC[C@@H](O)COP(=O)([O-])OCC[N+](C)(C)C` [Lipid 113, 1-palmitoyl-2-hydroxy-sn-glycerol-3-phosphatidylcholine] belongs “can effectively orally deliver”; to `CCCCCCCC/C=C\CCCCCCCC(=O)OCC(O)COP(=O)(O)OCCN` (stereo not drawn) [Lipid 116, 1-(9Z-octadecenoyl)-sn-glycero-3-phosphoethanolamine], “can effectively orally deliver”.
As to `CCCCCCCC/C=C\CCCCCCCC(=O)OC[C@H](COP(=O)([O-])OCC[N+](C)(C)C)OC(=O)CCCCCCC/C=C\CCCCCCCC` [Lipid 117, 1,2-bis-(9Z-octadecenoyl)-sn-glycero-3-phosphocholine], the “oral delivery … and intestinal tissue of mice” value in series [1] was “can effectively orally deliver”.
On the same count and under the same terms, with `CCCCCCCC/C=C\CCCCCCCC(=O)O[C@H](COC(=O)CCCCCCCCCCCCCCC)COP(=O)([O-])OCC[N+](C)(C)C` [Lipid 118, 1-palmitoyl-2-oleoyl-sn-glycero-3-phosphatidylcholine] the entry was “can effectively orally deliver”.
For `CCCCCCCCCCCCCCCC(=O)OCC(COP(=O)([O-])OCC[N+](C)(C)C)OC(=O)CCCCCCCCCCCCCCC` (stereo not drawn) [Lipid 119, 1,2-dihexadecanoyl-sn-glycero-3-phosphocholine], the “oral delivery … and intestinal tissue of mice” value in series [1] is given as “can effectively orally deliver”.
As for “N-palmitoleoyl-D-erythro-sphingosylphosphocholine [Lipid 103]”, the “oral delivery … and intestinal tissue of mice” value in series [1] is given as “can effectively orally deliver”. In addition, the “oral delivery of sRNA single-stranded nucleic acid into the lung tissue of mice” value in series [1] (setting [4]) is on record as “can significantly efficiently orally deliver”.
“N-palmitoyl-D-erythro-sphingosylphosphocholine [Lipid 105]”: the “oral delivery … and intestinal tissue of mice” value in series [1] was “can effectively orally deliver”. In series [1] (setting [4]), the “oral delivery of sRNA single-stranded nucleic acid into the blood of mice” value is “can significantly efficiently orally deliver”.
On to “N-stearoyl-D-erythro-sphingosylphosphocholine [Lipid 104]”, for which the “oral delivery … and intestinal tissue of mice” value in series [1] is on record as “can effectively orally deliver”. Besides, in series [1] (setting [4]), the “oral delivery of sRNA single-stranded nucleic acid into the blood of mice” value is given as “can significantly efficiently orally deliver”.
